# Patent US20240199605A1, “SMALL MOLECULAR INHIBITORS OF NF-kB INDUCING KINASE” (Janssen Pharmaceutica NV, priority 2019, published 2024)
# Assays:
# [1] = target: recombinant human NF-kappaB-inducing kinase (NIK/MAP3K14) (Homo sapiens (Human), UniProt Q99558); assay: Inhibition of auto-phosphorylation of recombinant human NIK/MAP3K14 (AlphaScreen); type: biochemical; settings: NIK auto-phosphorylation, 5 μM ATP, 1 nM NIK, 2 h at 25° C.; average of values
# In short: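 AlphaScreen read-out (anti-phospho-IKK Ser176/180 antibody, Protein A acceptor and glutathione donor beads) of NIK auto-phosphorylation. Reaction: 1 nM enzyme, 5 μM ATP, Tris pH 7.5 buffer with Mg2+ and vanadate, 2 h at 25° C., final DMSO 0.7%. IC50 came from a sigmoidal curve fit.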
# [2] = tested on: p-IKKα levels in L363 (NIK translocated multiple myeloma) cells; assay: Effect of compounds on p-IKKα levels in L363 cells (AlphaLISA SureFire Ultra); type: cell-based, human; settings: Homo sapiens, L-363, 6 h, BAFF stimulated, MG132, 6 h, average of values, read-out: Assay 2 IC50
# In short: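 Inhibition of p-IKKα (Ser176/180) read by AlphaLISA after 6 h, 37 °C compound exposure (11-point 1:3 series, 0.3% DMSO) of L363 cells pre-incubated overnight ± 250 ng/ml BAFF and plated ± BAFF ± 10 μM MG132. Normalised to BAFF/MG132/DMSO and unstimulated controls; IC50 by sigmoidal fitting, duplicates.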
# recombinant human NF-kappaB-inducing kinase (NIK/MAP3K14), sequence (Q99558 whole entry): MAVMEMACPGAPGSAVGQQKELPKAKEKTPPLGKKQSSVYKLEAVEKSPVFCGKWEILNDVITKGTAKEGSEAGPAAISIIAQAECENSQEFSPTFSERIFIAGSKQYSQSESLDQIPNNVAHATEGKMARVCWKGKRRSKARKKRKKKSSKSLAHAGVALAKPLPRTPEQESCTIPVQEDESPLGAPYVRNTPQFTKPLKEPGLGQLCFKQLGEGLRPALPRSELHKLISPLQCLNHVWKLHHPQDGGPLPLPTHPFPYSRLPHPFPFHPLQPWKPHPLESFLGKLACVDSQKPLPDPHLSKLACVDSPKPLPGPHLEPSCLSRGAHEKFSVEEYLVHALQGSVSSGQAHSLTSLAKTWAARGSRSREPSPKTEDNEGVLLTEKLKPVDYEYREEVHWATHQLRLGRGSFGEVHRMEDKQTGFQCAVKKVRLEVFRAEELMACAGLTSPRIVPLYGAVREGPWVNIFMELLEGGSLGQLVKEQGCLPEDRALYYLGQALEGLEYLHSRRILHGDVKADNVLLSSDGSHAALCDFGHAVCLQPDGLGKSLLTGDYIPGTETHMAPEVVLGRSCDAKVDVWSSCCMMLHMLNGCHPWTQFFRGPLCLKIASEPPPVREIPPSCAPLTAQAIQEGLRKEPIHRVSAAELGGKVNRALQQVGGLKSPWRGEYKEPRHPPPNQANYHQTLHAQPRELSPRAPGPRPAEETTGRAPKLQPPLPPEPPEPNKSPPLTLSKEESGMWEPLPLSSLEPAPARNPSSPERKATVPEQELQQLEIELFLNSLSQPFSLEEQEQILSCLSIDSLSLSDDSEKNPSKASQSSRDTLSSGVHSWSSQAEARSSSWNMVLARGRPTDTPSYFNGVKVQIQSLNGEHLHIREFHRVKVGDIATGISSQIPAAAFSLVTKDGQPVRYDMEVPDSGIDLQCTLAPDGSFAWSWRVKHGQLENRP
Structure (SMILES),IC50 [1],IC50 [2]
"CN1CC[C@@](O)(C#Cc2ccc(OC(F)(F)F)c(-c3ccc4ncnc(N)c4n3)c2)C1=O [Example 271, (R)-3-((3-(4-Aminopyrido[3,2-d]pyrimidin-6-yl)-4-(trifluoromethoxy)phenyl)ethynyl)-3-hydroxy-1-methylpyrrolidin-2-one]",0.0042 µM,0.044 µM
"CC(C)c1ncnc2ccc(-c3cccc(C#C[C@]4(O)CCN(C)C4=O)c3)nc12 [Example 272, (R)-3-Hydroxy-3-((3-(4-isopropylpyrido[3,2-d]pyrimidin-6-yl)phenyl)ethynyl)-1-methylpyrrolidin-2-one]",0.059 µM,1.96 µM
"Cc1nc(N)c2nc(-c3cccc(C#C[C@@]4(O)C(=O)N(C)[C@@H]5C[C@@H]54)c3)ccc2n1 [Example 273, (1R,4R,5S)-4-((3-(4-Amino-2-methylpyrido[3,2-d]pyrimidin-6-yl)phenyl)ethynyl)-4-hydroxy-2-methyl-2-azabicyclo[3.1.0]hexan-3-one]",0.0027 µM,0.027 µM
"Cc1nc(N)c2nc(-c3cccc(C#C[C@]4(O)C(=O)N(C)[C@H]5C[C@H]54)c3)ccc2n1 [Example 274, (1S,4S,5R)-4-((3-(4-Amino-2-methylpyrido[3,2-d]pyrimidin-6-yl)phenyl)ethynyl)-4-hydroxy-2-methyl-2-azabicyclo[3.1.0]hexan-3-one]",1.93 µM,> 5 µM
"[2H]c1nc(N)c2nc(-c3cccc(C#C[C@]4(O)C(=O)N(C)[C@H]5C[C@H]54)c3)ccc2n1 [Example 275, (1S,4S,5R)-4-((3-(4-Aminopyrido[3,2-d]pyrimidin-6-yl-2-d)phenyl)ethynyl)-4-hydroxy-2-methyl-2-azabicyclo[3.1.0]hexan-3-one]",0.3 µM,> 5 µM
"[2H]c1nc(N)c2nc(-c3cccc(C#C[C@@]4(O)C(=O)N(C)[C@@H]5C[C@@H]54)c3)ccc2n1 [Example 276, (1R,4R,5S)-4-((3-(4-Aminopyrido[3,2-d]pyrimidin-6-yl-2-d)phenyl)ethynyl)-4-hydroxy-2-methyl-2-azabicyclo[3.1.0]hexan-3-one]",≤ 0.0005 µM,0.0089 µM
"[2H]c1nc(N)c2nc(-c3cccc(C#C[C@]4(O)CCN(C)C4=O)c3)cc(C3CCCC3)c2n1 [Example 277, (R)-3-((3-(4-Amino-8-cyclopentylpyrido[3,2-d]pyrimidin-6-yl-2-d)phenyl)ethynyl)-3-hydroxy-1-methylpyrrolidin-2-one]",0.0007 µM,0.013 µM
"CN1CC[C@@](O)(C#Cc2cccc(-c3ccc4ncnc(C(F)(F)F)c4n3)c2)C1=O [Example 278, (R)-3-Hydroxy-1-methyl-3-((3-(4-(trifluoromethyl)pyrido[3,2-d]pyrimidin-6-yl)phenyl)ethynyl)pyrrolidin-2-one]",0.17 µM,> 5 µM
"CN1CC[C@@](O)(C#Cc2cccc(-c3ccc4ncnc(C#N)c4n3)c2)C1=O [Example 279, (R)-6-(3-((3-Hydroxy-1-methyl-2-oxopyrrolidin-3-yl)ethynyl)phenyl)pyrido[3,2-d]pyrimidine-4-carbonitrile]",1.51 µM,> 5 µM
"Cc1nccc2ccc(-c3cccc(C#C[C@]4(O)CCN(C)C4=O)c3)nc12 [Example 280, (R)-3-Hydroxy-1-methyl-3-((3-(8-methyl-1,7-naphthyridin-2-yl)phenyl)ethynyl)pyrrolidin-2-one]",0.045 µM,0.72 µM
"Cc1cc(-c2cccc(C#C[C@@]3(O)C(=O)N(C)[C@@H]4C[C@@H]43)c2)nc2c(N)ncnc12 [Example 281, (1R,4R,5S)-4-((3-(4-Amino-8-methylpyrido[3,2-d]pyrimidin-6-yl)phenyl)ethynyl)-4-hydroxy-2-methyl-2-azabicyclo[3.1.0]hexan-3-one]",0.0009 µM,0.0077 µM
"[2H]c1nc(N)c2nc(-c3cccc(C#C[C@]4(O)CCN(C)C4=O)c3)cc(CN)c2n1 [Example 282, (R)-3-((3-(4-Amino-8-(aminomethyl)pyrido[3,2-d]pyrimidin-6-yl-2-d)phenyl)ethynyl)-3-hydroxy-1-methylpyrrolidin-2-one]",0.0056 µM,0.205 µM
